Experimental data published in ChEMBL document CHEMBL3396981, “Synthesis and in vitro biological evaluation of 2-(phenylcarbamoyl)phenyl 4-substituted benzoates” (Bioorg Med Chem, 2015).
In brackets after ≈: the same amount, converted by molar mass.

tested on: Mycobacterium tuberculosis; test: Antimycobacterial activity against INH, RIF, rifabutin, streptomycin-resistant Mycobacterium tuberculosis 9449/2006 after 14 days by microdilution method; assay type: functional; conditions: 9449/2006, 336 h

Structure (SMILES) | MIC
O=C(Oc1ccc(Cl)cc1C(=O)Nc1ccc(Cl)c(Cl)c1)c1ccc([N+](=O)[O-])cc1 | 0.25 µM (≈ 0.116 µg/mL)
O=C(Oc1ccc(Cl)cc1C(=O)Nc1ccc(C(F)(F)F)cc1)c1ccccc1 | 0.5 µM (≈ 0.21 µg/mL)
Cc1ccc(C(=O)Oc2ccc(Cl)cc2C(=O)Nc2ccc(C(F)(F)F)cc2)cc1 | 1 µM (≈ 0.434 µg/mL)
O=C(Oc1ccc(Cl)cc1C(=O)Nc1ccc(C(F)(F)F)cc1)c1ccc(C(F)(F)F)cc1 | 1 µM (≈ 0.488 µg/mL)
O=C(Oc1ccc(Cl)cc1C(=O)Nc1ccc(C(F)(F)F)cc1)c1ccc([N+](=O)[O-])cc1 | 0.5 µM (≈ 0.232 µg/mL)
O=C(Oc1ccc(Cl)cc1C(=O)Nc1ccc(C(F)(F)F)cc1)c1ccc(Br)cc1 | 1 µM (≈ 0.499 µg/mL)
O=C(Oc1ccc(Br)cc1C(=O)Nc1ccc(C(F)(F)F)cc1)c1ccccc1 | 1 µM (≈ 0.464 µg/mL)

tested on: Mycobacterium tuberculosis; test: Antimycobacterial activity against INH, RIF, rifabutin, streptomycin, ethambutol, ofloxacin, gentamicin, amikacin-resistant Mycobacterium tuberculosis Praha 131 after 21 days by microdilution method; assay type: functional; conditions: Praha 131, 504 h

Structure (SMILES) | MIC
O=C(Oc1ccc(Cl)cc1C(=O)Nc1ccc(Cl)c(Cl)c1)c1ccc([N+](=O)[O-])cc1 | 0.25 µM (≈ 0.116 µg/mL)
O=C(Oc1ccc(Cl)cc1C(=O)Nc1ccc(C(F)(F)F)cc1)c1ccccc1 | 0.5 µM (≈ 0.21 µg/mL)
Cc1ccc(C(=O)Oc2ccc(Cl)cc2C(=O)Nc2ccc(C(F)(F)F)cc2)cc1 | 1 µM (≈ 0.434 µg/mL)
O=C(Oc1ccc(Cl)cc1C(=O)Nc1ccc(C(F)(F)F)cc1)c1ccc(C(F)(F)F)cc1 | 1 µM (≈ 0.488 µg/mL)
O=C(Oc1ccc(Cl)cc1C(=O)Nc1ccc(C(F)(F)F)cc1)c1ccc([N+](=O)[O-])cc1 | 1 µM (≈ 0.465 µg/mL)
O=C(Oc1ccc(Cl)cc1C(=O)Nc1ccc(C(F)(F)F)cc1)c1ccc(Br)cc1 | 1 µM (≈ 0.499 µg/mL)
O=C(Oc1ccc(Br)cc1C(=O)Nc1ccc(C(F)(F)F)cc1)c1ccccc1 | 1 µM (≈ 0.464 µg/mL)

tested on: Mycobacterium tuberculosis; test: Antimycobacterial activity against INH, RIF, rifabutin, streptomycin, ethambutol, ofloxacin-resistant Mycobacterium tuberculosis 234/2005 after 21 days by microdilution method; assay type: functional; conditions: 234/2005, 504 h

Structure (SMILES) | MIC
O=C(Oc1ccc(Cl)cc1C(=O)Nc1ccc(C(F)(F)F)cc1)c1ccccc1 | 0.25 µM (≈ 0.105 µg/mL)
Cc1ccc(C(=O)Oc2ccc(Cl)cc2C(=O)Nc2ccc(C(F)(F)F)cc2)cc1 | 2 µM (≈ 0.868 µg/mL)
O=C(Oc1ccc(Cl)cc1C(=O)Nc1ccc(C(F)(F)F)cc1)c1ccc(C(F)(F)F)cc1 | 1 µM (≈ 0.488 µg/mL)
O=C(Oc1ccc(Cl)cc1C(=O)Nc1ccc(C(F)(F)F)cc1)c1ccc([N+](=O)[O-])cc1 | 1 µM (≈ 0.465 µg/mL)
O=C(Oc1ccc(Cl)cc1C(=O)Nc1ccc(C(F)(F)F)cc1)c1ccc(Br)cc1 | 2 µM (≈ 0.997 µg/mL)
O=C(Oc1ccc(Br)cc1C(=O)Nc1ccc(C(F)(F)F)cc1)c1ccccc1 | 0.5 µM (≈ 0.232 µg/mL)

tested on: not listed separately; test: Selectivity index, ratio of IC50 for human HepG2 cells to MIC for multidrug-resistant Mycobacterium tuberculosis; assay type: toxicity, cell-based; conditions: read-out: Selectivity Index

Structure (SMILES) | selectivity ratio
O=C(Oc1ccc(Cl)cc1C(=O)Nc1ccc(Cl)c(Cl)c1)c1ccc([N+](=O)[O-])cc1 | > 100
Cc1ccc(C(=O)Oc2ccc(Cl)cc2C(=O)Nc2ccc(C(F)(F)F)cc2)cc1 | > 25
O=C(Oc1ccc(Cl)cc1C(=O)Nc1ccc(C(F)(F)F)cc1)c1ccc([N+](=O)[O-])cc1 | > 50
O=C(Oc1ccc(Cl)cc1C(=O)Nc1ccc(C(F)(F)F)cc1)c1ccc(Br)cc1 | > 25

tested on: Mycobacterium tuberculosis; test: Antimycobacterial activity against INH, RIF, rifabutin, streptomycin, ethambutol, ofloxacin, clofazimine-resistant Mycobacterium tuberculosis Praha 4 after 21 days by microdilution method; assay type: functional; conditions: Praha 4, 504 h

Structure (SMILES) | MIC
O=C(Oc1ccc(Cl)cc1C(=O)Nc1ccc(Cl)c(Cl)c1)c1ccc([N+](=O)[O-])cc1 | 0.5 µM (≈ 0.233 µg/mL)
Cc1ccc(C(=O)Oc2ccc(Cl)cc2C(=O)Nc2ccc(C(F)(F)F)cc2)cc1 | 1 µM (≈ 0.434 µg/mL)
O=C(Oc1ccc(Cl)cc1C(=O)Nc1ccc(C(F)(F)F)cc1)c1ccc([N+](=O)[O-])cc1 | 1 µM (≈ 0.465 µg/mL)

tested on: Mycobacterium tuberculosis; test: Antimycobacterial activity against INH, RIF, rifabutin, streptomycin, ethambutol, clofazimine-resistant Mycobacterium tuberculosis Praha 1 after 21 days by microdilution method; assay type: functional; conditions: Praha 1, 504 h

Structure (SMILES) | MIC
O=C(Oc1ccc(Cl)cc1C(=O)Nc1ccc(C(F)(F)F)cc1)c1ccccc1 | 0.5 µM (≈ 0.21 µg/mL)
Cc1ccc(C(=O)Oc2ccc(Cl)cc2C(=O)Nc2ccc(C(F)(F)F)cc2)cc1 | 1 µM (≈ 0.434 µg/mL)
O=C(Oc1ccc(Cl)cc1C(=O)Nc1ccc(C(F)(F)F)cc1)c1ccc(C(F)(F)F)cc1 | 0.5 µM (≈ 0.244 µg/mL)
O=C(Oc1ccc(Cl)cc1C(=O)Nc1ccc(C(F)(F)F)cc1)c1ccc([N+](=O)[O-])cc1 | 1 µM (≈ 0.465 µg/mL)
O=C(Oc1ccc(Cl)cc1C(=O)Nc1ccc(C(F)(F)F)cc1)c1ccc(Br)cc1 | 1 µM (≈ 0.499 µg/mL)
O=C(Oc1ccc(Br)cc1C(=O)Nc1ccc(C(F)(F)F)cc1)c1ccccc1 | 1 µM (≈ 0.464 µg/mL)

tested on: Mycobacterium tuberculosis; test: Antimycobacterial activity against INH, RIF, rifabutin, streptomycin, ethambutol, ofloxacin-resistant Mycobacterium tuberculosis 7357/1998 after 21 days by microdilution method; assay type: functional; conditions: 7357/1998, 504 h

Structure (SMILES) | MIC
O=C(Oc1ccc(Cl)cc1C(=O)Nc1ccc(Cl)c(Cl)c1)c1ccc([N+](=O)[O-])cc1 | 0.5 µM (≈ 0.233 µg/mL)
O=C(Oc1ccc(Cl)cc1C(=O)Nc1ccc(C(F)(F)F)cc1)c1ccccc1 | 0.5 µM (≈ 0.21 µg/mL)
Cc1ccc(C(=O)Oc2ccc(Cl)cc2C(=O)Nc2ccc(C(F)(F)F)cc2)cc1 | 1 µM (≈ 0.434 µg/mL)
O=C(Oc1ccc(Cl)cc1C(=O)Nc1ccc(C(F)(F)F)cc1)c1ccc(C(F)(F)F)cc1 | 1 µM (≈ 0.488 µg/mL)
O=C(Oc1ccc(Cl)cc1C(=O)Nc1ccc(C(F)(F)F)cc1)c1ccc([N+](=O)[O-])cc1 | 1 µM (≈ 0.465 µg/mL)
O=C(Oc1ccc(Cl)cc1C(=O)Nc1ccc(C(F)(F)F)cc1)c1ccc(Br)cc1 | 1 µM (≈ 0.499 µg/mL)
O=C(Oc1ccc(Br)cc1C(=O)Nc1ccc(C(F)(F)F)cc1)c1ccccc1 | 0.5 µM (≈ 0.232 µg/mL)

tested on: Mycobacterium tuberculosis; test: Antimycobacterial activity against INH, RIF, rifabutin, streptomycin-resistant Mycobacterium tuberculosis 9449/2006 after 21 days by microdilution method; assay type: functional; conditions: 9449/2006, 504 h

Structure (SMILES) | MIC
O=C(Oc1ccc(Cl)cc1C(=O)Nc1ccc(Cl)c(Cl)c1)c1ccc([N+](=O)[O-])cc1 | 0.5 µM (≈ 0.233 µg/mL)
O=C(Oc1ccc(Cl)cc1C(=O)Nc1ccc(C(F)(F)F)cc1)c1ccccc1 | 0.5 µM (≈ 0.21 µg/mL)
Cc1ccc(C(=O)Oc2ccc(Cl)cc2C(=O)Nc2ccc(C(F)(F)F)cc2)cc1 | 1 µM (≈ 0.434 µg/mL)
O=C(Oc1ccc(Cl)cc1C(=O)Nc1ccc(C(F)(F)F)cc1)c1ccc(C(F)(F)F)cc1 | 1 µM (≈ 0.488 µg/mL)
O=C(Oc1ccc(Cl)cc1C(=O)Nc1ccc(C(F)(F)F)cc1)c1ccc([N+](=O)[O-])cc1 | 1 µM (≈ 0.465 µg/mL)
O=C(Oc1ccc(Cl)cc1C(=O)Nc1ccc(C(F)(F)F)cc1)c1ccc(Br)cc1 | 1 µM (≈ 0.499 µg/mL)
O=C(Oc1ccc(Br)cc1C(=O)Nc1ccc(C(F)(F)F)cc1)c1ccccc1 | 1 µM (≈ 0.464 µg/mL)

tested on: Mycobacterium tuberculosis; test: Antimycobacterial activity against INH, RIF, rifabutin, streptomycin, ethambutol, ofloxacin, clofazimine-resistant Mycobacterium tuberculosis Praha 4 after 14 days by microdilution method; assay type: functional; conditions: Praha 4, 336 h

Structure (SMILES) | MIC
O=C(Oc1ccc(Cl)cc1C(=O)Nc1ccc(Cl)c(Cl)c1)c1ccc([N+](=O)[O-])cc1 | 0.25 µM (≈ 0.116 µg/mL)
Cc1ccc(C(=O)Oc2ccc(Cl)cc2C(=O)Nc2ccc(C(F)(F)F)cc2)cc1 | 1 µM (≈ 0.434 µg/mL)
O=C(Oc1ccc(Cl)cc1C(=O)Nc1ccc(C(F)(F)F)cc1)c1ccc([N+](=O)[O-])cc1 | 0.25 µM (≈ 0.116 µg/mL)

tested on: Mycobacterium tuberculosis; test: Antimycobacterial activity against INH, RIF, rifabutin, streptomycin, ethambutol, ofloxacin, gentamicin, amikacin-resistant Mycobacterium tuberculosis Praha 131 after 14 days by microdilution method; assay type: functional; conditions: Praha 131, 336 h

Structure (SMILES) | MIC
O=C(Oc1ccc(Cl)cc1C(=O)Nc1ccc(Cl)c(Cl)c1)c1ccc([N+](=O)[O-])cc1 | 0.25 µM (≈ 0.116 µg/mL)
O=C(Oc1ccc(Cl)cc1C(=O)Nc1ccc(C(F)(F)F)cc1)c1ccccc1 | 0.25 µM (≈ 0.105 µg/mL)
Cc1ccc(C(=O)Oc2ccc(Cl)cc2C(=O)Nc2ccc(C(F)(F)F)cc2)cc1 | 1 µM (≈ 0.434 µg/mL)
O=C(Oc1ccc(Cl)cc1C(=O)Nc1ccc(C(F)(F)F)cc1)c1ccc(C(F)(F)F)cc1 | 0.5 µM (≈ 0.244 µg/mL)
O=C(Oc1ccc(Cl)cc1C(=O)Nc1ccc(C(F)(F)F)cc1)c1ccc([N+](=O)[O-])cc1 | 0.5 µM (≈ 0.232 µg/mL)
O=C(Oc1ccc(Cl)cc1C(=O)Nc1ccc(C(F)(F)F)cc1)c1ccc(Br)cc1 | 1 µM (≈ 0.499 µg/mL)
O=C(Oc1ccc(Br)cc1C(=O)Nc1ccc(C(F)(F)F)cc1)c1ccccc1 | 0.5 µM (≈ 0.232 µg/mL)

tested on: Mycobacterium tuberculosis; test: Antimycobacterial activity against INH, RIF, rifabutin, streptomycin, ethambutol, ofloxacin-resistant Mycobacterium tuberculosis 234/2005 after 14 days by microdilution method; assay type: functional; conditions: 234/2005, 336 h

Structure (SMILES) | MIC
O=C(Oc1ccc(Cl)cc1C(=O)Nc1ccc(C(F)(F)F)cc1)c1ccccc1 | 0.25 µM (≈ 0.105 µg/mL)
Cc1ccc(C(=O)Oc2ccc(Cl)cc2C(=O)Nc2ccc(C(F)(F)F)cc2)cc1 | 2 µM (≈ 0.868 µg/mL)
O=C(Oc1ccc(Cl)cc1C(=O)Nc1ccc(C(F)(F)F)cc1)c1ccc(C(F)(F)F)cc1 | 0.5 µM (≈ 0.244 µg/mL)
O=C(Oc1ccc(Cl)cc1C(=O)Nc1ccc(C(F)(F)F)cc1)c1ccc([N+](=O)[O-])cc1 | 0.25 µM (≈ 0.116 µg/mL)
O=C(Oc1ccc(Cl)cc1C(=O)Nc1ccc(C(F)(F)F)cc1)c1ccc(Br)cc1 | 2 µM (≈ 0.997 µg/mL)
O=C(Oc1ccc(Br)cc1C(=O)Nc1ccc(C(F)(F)F)cc1)c1ccccc1 | 0.5 µM (≈ 0.232 µg/mL)

tested on: Mycobacterium tuberculosis; test: Antimycobacterial activity against INH, RIF, rifabutin, streptomycin, ethambutol, clofazimine-resistant Mycobacterium tuberculosis Praha 1 after 14 days by microdilution method; assay type: functional; conditions: Praha 1, 336 h

Structure (SMILES) | MIC
O=C(Oc1ccc(Cl)cc1C(=O)Nc1ccc(C(F)(F)F)cc1)c1ccccc1 | 0.5 µM (≈ 0.21 µg/mL)
Cc1ccc(C(=O)Oc2ccc(Cl)cc2C(=O)Nc2ccc(C(F)(F)F)cc2)cc1 | 1 µM (≈ 0.434 µg/mL)
O=C(Oc1ccc(Cl)cc1C(=O)Nc1ccc(C(F)(F)F)cc1)c1ccc(C(F)(F)F)cc1 | 0.5 µM (≈ 0.244 µg/mL)
O=C(Oc1ccc(Cl)cc1C(=O)Nc1ccc(C(F)(F)F)cc1)c1ccc([N+](=O)[O-])cc1 | 0.5 µM (≈ 0.232 µg/mL)
O=C(Oc1ccc(Cl)cc1C(=O)Nc1ccc(C(F)(F)F)cc1)c1ccc(Br)cc1 | 1 µM (≈ 0.499 µg/mL)
O=C(Oc1ccc(Br)cc1C(=O)Nc1ccc(C(F)(F)F)cc1)c1ccccc1 | 1 µM (≈ 0.464 µg/mL)

tested on: Mycobacterium tuberculosis; test: Antimycobacterial activity against INH, RIF, rifabutin, streptomycin, ethambutol, ofloxacin-resistant Mycobacterium tuberculosis 7357/1998 after 14 days by microdilution method; assay type: functional; conditions: 7357/1998, 336 h

Structure (SMILES) | MIC
O=C(Oc1ccc(Cl)cc1C(=O)Nc1ccc(Cl)c(Cl)c1)c1ccc([N+](=O)[O-])cc1 | 0.25 µM (≈ 0.116 µg/mL)
O=C(Oc1ccc(Cl)cc1C(=O)Nc1ccc(C(F)(F)F)cc1)c1ccccc1 | 0.25 µM (≈ 0.105 µg/mL)
Cc1ccc(C(=O)Oc2ccc(Cl)cc2C(=O)Nc2ccc(C(F)(F)F)cc2)cc1 | 1 µM (≈ 0.434 µg/mL)
O=C(Oc1ccc(Cl)cc1C(=O)Nc1ccc(C(F)(F)F)cc1)c1ccc(C(F)(F)F)cc1 | 0.5 µM (≈ 0.244 µg/mL)
O=C(Oc1ccc(Cl)cc1C(=O)Nc1ccc(C(F)(F)F)cc1)c1ccc([N+](=O)[O-])cc1 | 0.5 µM (≈ 0.232 µg/mL)
O=C(Oc1ccc(Cl)cc1C(=O)Nc1ccc(C(F)(F)F)cc1)c1ccc(Br)cc1 | 1 µM (≈ 0.499 µg/mL)
O=C(Oc1ccc(Br)cc1C(=O)Nc1ccc(C(F)(F)F)cc1)c1ccccc1 | 0.25 µM (≈ 0.116 µg/mL)
